Usually EC50 stands for the concentration needed to bring the measured effect to its halfway point. In general, CC50 refers to the concentration that lowers cell viability or growth by half.

The results in this text go back to US12678446B2 (PFIZER INC., priority 2020, dated 2026).

Series [1] has as its system RSV (RSV A2 ECACC, 0709161v). Briefly: RSV plaque reduction assay. In kind it is cell-based, respiratory syncytial virus. To be noted: human respiratory syncytial virus, HepG2, read-out: RSV A2 Plaque EC50, RSV A2 in Hep-G2 cells; mean of at least two experiments unless noted (n = 1). Summed up:
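Eight-point compound dilutions were premixed with RSV A2 (100 PFU/well) and applied to confluent Hep-G2 cells for 2 h, followed by a 2-day incubation at 37° C. under compound-containing 0.8% CMC overlay. EC50 comes from immunostained plaque counts relative to untreated virus wells, averaged over ≥2 runs.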

Another series is described as follows: cell toxicity CC50. To be noted: human; Hep-G2 cells; mean of at least two experiments; read-out: Cell Cytotoxicity CC50. It counts as cell-based.

Regarding `O=C(N[C@H]1N=C(c2ccccc2)c2ccccc2NC1=O)c1c(-c2ccccc2)nn2c1OCCC2` [Example 22, N-[(3S)-2-oxo-5-phenyl-1,3-dihydro-1,4-benzodiazepin-3-yl]-2-phenyl-6,7-dihydro-5H-pyrazolo[5,1-b][1,3]oxazine-3-carboxamide], the EC50 in series [1] came to 140 nM. Moreover, the CC50 in “cell toxicity CC50” is more than 25000 nM.
The like results for `CCn1cc(-c2nn3c(c2C(=O)N[C@H]2N=C(c4ccccc4)c4cccc(F)c4NC2=O)OCC(CO)C3)cn1` (stereo partly drawn) [Example 130, 2-(1-Ethylpyrazol-4-yl)-N-[(3S)-9-fluoro-2-oxo-5-phenyl-1,3-dihydro-1,4-benzodiazepin-3-yl]-6-(hydroxymethyl)-6,7-dihydro-5H-pyrazolo[5,1-b][1,3]oxazine-3-carboxamide] were, in that order, 350 nM and more than 25000 nM.
As to `Cn1ncc2c(-c3nn4c(c3C(=O)N[C@H]3N=C(c5ccccc5)c5ccccc5NC3=O)OCCC4)cccc21` [Example 149, 2-(1-Methylindazol-4-yl)-N-[(3S)-2-oxo-5-phenyl-1,3-dihydro-1,4-benzodiazepin-3-yl]-6,7-dihydro-5H-pyrazolo[5,1-b][1,3]oxazine-3-carboxamide], the EC50 in series [1] was 194 nM. Also, in “cell toxicity CC50”, the CC50 was more than 25000 nM.
The like results for `C[C@@H]1CCn2nc(-c3cnn(C)c3)c(C(=O)N[C@H]3N=C(c4ccccc4)c4cccc(F)c4NC3=O)c2O1` [Example 98, (5R)-N-[(3S)-9-fluoro-2-oxo-5-phenyl-1,3-dihydro-1,4-benzodiazepin-3-yl]-5-methyl-2-(1-methylpyrazol-4-yl)-6,7-dihydro-5H-pyrazolo[5,1-b][1,3]oxazine-3-carboxamide] were, in that order, 80 nM and more than 25000 nM.
The like results for `O=C(N[C@H]1N=C(c2ccccc2)c2cccc(F)c2NC1=O)c1c(-c2ccccc2F)nn2c1OCCC2` [Example 21, N-[(3S)-9-fluoro-2-oxo-5-phenyl-1,3-dihydro-1,4-benzodiazepin-3-yl]-2-(2-fluorophenyl)-6,7-dihydro-5H-pyrazolo[5,1-b][1,3]oxazine-3-carboxamide] were, in that order, 64 nM and more than 25000 nM.
The like results for `C[C@@H]1CCn2nc(-c3cc(C4CC4)cnc3F)c(C(=O)N[C@H]3N=C(c4ccccc4)c4cccc(F)c4NC3=O)c2O1` [Example 53, (5R)-2-(5-Cyclopropyl-2-fluoro-3-pyridyl)-N-[(3S)-9-fluoro-2-oxo-5-phenyl-1,3-dihydro-1,4-benzodiazepin-3-yl]-5-methyl-6,7-dihydro-5H-pyrazolo[5,1-b][1,3]oxazine-3-carboxamide] were, in that order, 92 nM and more than 25000 nM.
On to `CCS(=O)(=O)c1ccc(-c2nn3c(c2C(=O)N[C@H]2N=C(c4ccccc4)c4cccc(F)c4NC2=O)O[C@H](C)CC3)c(F)c1` [Example 197, (5R)-2-(4-Ethylsulfonyl-2-fluorophenyl)-N-[(3S)-9-fluoro-2-oxo-5-phenyl-1,3-dihydro-1,4-benzodiazepin-3-yl]-5-methyl-6,7-dihydro-5H-pyrazolo[5,1-b][1,3]oxazine-3-carboxamide], for which the EC50 in series [1] came to 97 nM. Further, in the series “cell toxicity CC50”, the CC50 is more than 25000 nM.
The like results for `CCc1ccc(-c2nn3c(c2C(=O)N[C@H]2N=C(c4ccccc4)c4cccc(F)c4NC2=O)OCC(CO)C3)cn1` (stereo partly drawn) [Example 133, 2-(6-Ethylpyridin-3-yl)-N-[(3S)-9-fluoro-2-oxo-5-phenyl-1,3-dihydro-1,4-benzodiazepin-3-yl]-6-(hydroxymethyl)-6,7-dihydro-5H-pyrazolo[5,1-b][1,3]oxazine-3-carboxamide] were, in that order, 220 nM and more than 25000 nM.
`C[C@@H]1CCn2nc(-c3ccc(S(N)(=O)=O)cc3F)c(C(=O)N[C@H]3N=C(c4ccccc4)c4cccc(F)c4NC3=O)c2O1` [Example 199, (5R)-N-[(3S)-9-Fluoro-2-oxo-5-phenyl-1,3-dihydro-1,4-benzodiazepin-3-yl]-2-(2-fluoro-4-sulfamoylphenyl)-5-methyl-6,7-dihydro-5H-pyrazolo[5,1-b][1,3]oxazine-3-carboxamide]: the EC50 in series [1] was found to be 64 nM. Moreover, the CC50 in “cell toxicity CC50” is more than 25000 nM.
In the case of `O=C(N[C@H]1N=C(c2ccccc2)c2cccc(F)c2NC1=O)c1c(-c2ccccc2F)nn2c1OC(CN1CCOCC1)CC2` (stereo partly drawn) [Example 167, N-[(3S)-9-fluoro-2-oxo-5-phenyl-1,3-dihydro-1,4-benzodiazepin-3-yl]-2-(2-fluorophenyl)-5-(morpholin-4-ylmethyl)-6,7-dihydro-5H-pyrazolo[5,1-b][1,3]oxazine-3-carboxamide], in series [1], the EC50 worked out at 91 nM. Further, the CC50 in the series “cell toxicity CC50” is more than 25000 nM.
The like results for `O=C(N[C@H]1N=C(c2ccccc2)c2cccc(F)c2NC1=O)c1c(-c2ccc(NC3CC3)nc2)nn2c1OCCC2` [Example 15, 2-[6-(Cyclopropylamino)pyridin-3-yl]-N-[(3S)-9-fluoro-2-oxo-5-phenyl-1,3-dihydro-1,4-benzodiazepin-3-yl]-6,7-dihydro-5H-pyrazolo[5,1-b][1,3]oxazine-3-carboxamide] were, in that order, 30 nM and more than 25000 nM.
The like results for `CSc1ccc(-c2nn3c(c2C(=O)N[C@H]2N=C(c4ccccc4)c4cccc(F)c4NC2=O)OCCC3)c(F)c1` [Example 193, 2-(2-Fluoro-4-methylsulfanylphenyl)-N-[(3S)-9-fluoro-2-oxo-5-phenyl-1,3-dihydro-1,4-benzodiazepin-3-yl]-6,7-dihydro-5H-pyrazolo[5,1-b][1,3]oxazine-3-carboxamide] were, in that order, 19 nM and more than 25000 nM.
The like results for `O=C(N[C@H]1N=C(c2ccccc2)c2ccccc2NC1=O)c1c(-c2cccnc2F)nn2c1OCCC2` [Example 136, 2-(2-Fluoropyridin-3-yl)-N-[(3S)-2-oxo-5-phenyl-1,3-dihydro-1,4-benzodiazepin-3-yl]-6,7-dihydro-5H-pyrazolo[5,1-b][1,3]oxazine-3-carboxamide] were, in that order, 182 nM and more than 25000 nM.
As to `CC(C)Nc1ccc(-c2nn3c(c2C(=O)N[C@H]2N=C(c4ccccc4)c4cccc(F)c4NC2=O)O[C@H](C)CC3)c(F)n1` [Example 30, (5R)-N-[(3S)-9-fluoro-2-oxo-5-phenyl-1,3-dihydro-1,4-benzodiazepin-3-yl]-2-[2-fluoro-6-(propan-2-ylamino)pyridin-3-yl]-5-methyl-6,7-dihydro-5H-pyrazolo[5,1-b][1,3]oxazine-3-carboxamide], the EC50 in series [1] turned out to be 16 nM. The CC50 in the series “cell toxicity CC50” is more than 25000 nM.
The like results for `CO[C@H]1CCN(c2ccc(-c3nn4c(c3C(=O)N[C@H]3N=C(c5ccccc5)c5cccc(F)c5NC3=O)O[C@H](C)CC4)cn2)C1` [Example 146, (5R)-N-[(3S)-9-fluoro-2-oxo-5-phenyl-1,3-dihydro-1,4-benzodiazepin-3-yl]-2-[6-[(3S)-3-methoxypyrrolidin-1-yl]pyridin-3-yl]-5-methyl-6,7-dihydro-5H-pyrazolo[5,1-b][1,3]oxazine-3-carboxamide] were, in that order, 294 nM and more than 25000 nM.
The like results for `CC1(C)COc2c(C(=O)N[C@H]3N=C(c4ccccc4)c4ccccc4NC3=O)c(-c3ccccc3F)nn2C1` [Example 40, 2-(2-Fluorophenyl)-6,6-dimethyl-N-[(3S)-2-oxo-5-phenyl-1,3-dihydro-1,4-benzodiazepin-3-yl]-5,7-dihydropyrazolo[5,1-b][1,3]oxazine-3-carboxamide] were, in that order, 57 nM and more than 25000 nM.
